pIC50: −log10 of the molar value.

These results are taken from ChEMBL document CHEMBL4261580, “Novel antitumor compound optimized from natural saponin Albiziabioside A induced caspase-dependent apoptosis and ferroptosis as a p53 activator through the mitochondrial pathway” (Eur J Med Chem, 2018).

Common to all, as to type: functional, cell-based
In one test the test system is HCT-116. Nature of the test: Antiproliferative activity against human HCT116 cells after 72 hrs by MTT assay. As to conditions: HCT-116, 72 h.
The subject of another test is HepG2. In words: Antiproliferative activity against human HepG2 cells after 72 hrs by MTT assay. The settings on record: HepG2, 72 h.
The next test concerns MCF7. Nature of the test: Antiproliferative activity against human MCF7 cells after 72 hrs by MTT assay. As to conditions: MCF7, 72 h.
Another test deals with A549. In words: Antiproliferative activity against human A549 cells after 72 hrs by MTT assay. As to conditions: A549, 72 h.
A further test relates to MGC-803. In words: Antiproliferative activity against human MGC803 cells after 72 hrs by MTT assay. As to conditions: MGC-803, 72 h.

Turning to `CC(=O)N[C@H]1[C@H](O[C@H]2CC[C@]3(C)[C@H]4CC=C5[C@@H]6CC(C)(C)CC[C@]6(C(=O)OCc6cn(-c7cccc(Cl)c7)nn6)CC[C@@]5(C)[C@]4(C)CC[C@H]3C2(C)C)O[C@H](CO[C@@H]2OC[C@H](O)[C@H](O)[C@@H]2O)[C@@H](O)[C@@H]1O`, the pIC50 was 4.94 in the test on HCT-116; 5.09 with HepG2; 4.73 in the test with MCF7; 5.11 in the test with A549; 4.96 in the test with MGC-803.
Consider `COc1ccc(-n2cc(COC(=O)[C@]34CCC(C)(C)C[C@H]3C3=CC[C@@H]5[C@@]6(C)CC[C@H](O[C@@H]7O[C@H](CO[C@@H]8OC[C@H](O)[C@H](O)[C@@H]8O)[C@@H](O)[C@H](O)[C@H]7NC(C)=O)C(C)(C)[C@@H]6CC[C@@]5(C)[C@]3(C)CC4)nn2)cc1`, for which the pIC50 with HCT-116 was 4.70; in the test with HepG2, 4.91; with MCF7 it was 4.71; in the test with A549, 4.68; with MGC-803, 4.71.
For the compound `CC(=O)N[C@H]1[C@H](O[C@H]2CC[C@]3(C)[C@H]4CC=C5[C@@H]6CC(C)(C)CC[C@]6(C(=O)OCc6cn(-c7ccc(C(C)=O)cc7)nn6)CC[C@@]5(C)[C@]4(C)CC[C@H]3C2(C)C)O[C@H](CO[C@@H]2OC[C@H](O)[C@H](O)[C@@H]2O)[C@@H](O)[C@@H]1O`, the pIC50 with HCT-116 is 4.89; in the test on HepG2, 4.94; in the test with MCF7, 4.83; in the test with A549, 4.85; in the test on MGC-803, 4.77.
The like results for `CC(=O)N[C@H]1[C@H](O[C@H]2CC[C@]3(C)[C@H]4CC=C5[C@@H]6CC(C)(C)CC[C@]6(C(=O)OCc6cn(-c7cccc(F)c7)nn6)CC[C@@]5(C)[C@]4(C)CC[C@H]3C2(C)C)O[C@H](CO[C@@H]2OC[C@H](O)[C@H](O)[C@@H]2O)[C@@H](O)[C@@H]1O` were, in that order, 4.95, 4.74, 4.46, 4.71 and 4.73.
As to `CC(=O)N[C@H]1[C@H](O[C@H]2CC[C@]3(C)[C@H]4CC=C5[C@@H]6CC(C)(C)CC[C@]6(C(=O)OCc6cn(-c7ccccc7Br)nn6)CC[C@@]5(C)[C@]4(C)CC[C@H]3C2(C)C)O[C@H](CO[C@@H]2OC[C@H](O)[C@H](O)[C@@H]2O)[C@@H](O)[C@@H]1O`, the negative logarithm of the IC50 (pIC50) in the test with HCT-116 was 4.88; in the test on HepG2 it was 4.21; with MCF7 it was 4.17; in the test with A549 it was 4.19; in the test on MGC-803 it was 4.26.
Regarding `CC(=O)N[C@H]1[C@H](O[C@H]2CC[C@]3(C)[C@H]4CC=C5[C@@H]6CC(C)(C)CC[C@]6(C(=O)OCc6cn(-c7cccc([N+](=O)[O-])c7)nn6)CC[C@@]5(C)[C@]4(C)CC[C@H]3C2(C)C)O[C@H](CO[C@@H]2OC[C@H](O)[C@H](O)[C@@H]2O)[C@@H](O)[C@@H]1O`, the pIC50 is 4.57 in the test with HCT-116; 4.48 with HepG2; 4.59 with MCF7; 4.43 with A549; 4.42 in the test with MGC-803.
The like results for `CC(=O)N[C@H]1[C@H](O[C@H]2CC[C@]3(C)[C@H]4CC=C5[C@@H]6CC(C)(C)CC[C@]6(C(=O)OCc6cn(-c7ccc(Cl)cc7)nn6)CC[C@@]5(C)[C@]4(C)CC[C@H]3C2(C)C)O[C@H](CO[C@@H]2OC[C@H](O)[C@H](O)[C@@H]2O)[C@@H](O)[C@@H]1O` were, in that order, 4.42, 4.55, 4.17, 4.41 and 4.60.
The corresponding values for `CC(=O)N[C@H]1[C@H](O[C@H]2CC[C@]3(C)[C@H]4CC=C5[C@@H]6CC(C)(C)CC[C@]6(C(=O)OCc6cn(-c7ccc(C#N)cc7)nn6)CC[C@@]5(C)[C@]4(C)CC[C@H]3C2(C)C)O[C@H](CO[C@@H]2OC[C@H](O)[C@H](O)[C@@H]2O)[C@@H](O)[C@@H]1O` are 5.05, 4.76, 4.80, 4.65 and 4.74.
In the case of `CC(=O)N[C@H]1[C@H](O[C@H]2CC[C@]3(C)[C@H]4CC=C5[C@@H]6CC(C)(C)CC[C@]6(C(=O)OCc6cn(-c7cccc(C#N)c7)nn6)CC[C@@]5(C)[C@]4(C)CC[C@H]3C2(C)C)O[C@H](CO[C@@H]2OC[C@H](O)[C@H](O)[C@@H]2O)[C@@H](O)[C@@H]1O`, the negative logarithm of the IC50 (pIC50) in the test on HCT-116 was 4.57; in the test on HepG2 it was 4.56; in the test on MCF7, 4.56; in the test on A549 it was 4.53; with MGC-803, 4.54.
Take `CC(=O)N[C@H]1[C@H](O[C@H]2CC[C@]3(C)[C@H]4CC=C5[C@@H]6CC(C)(C)CC[C@]6(C(=O)OCc6cn(-c7ccccc7C)nn6)CC[C@@]5(C)[C@]4(C)CC[C@H]3C2(C)C)O[C@H](CO[C@@H]2OC[C@H](O)[C@H](O)[C@@H]2O)[C@@H](O)[C@@H]1O`: the pIC50 in the test on HCT-116 was 4.96; in the test on HepG2 it was 4.29; in the test with MCF7, 4.06; in the test with A549, 4.20; with MGC-803, 4.24.
`CC(=O)N[C@H]1[C@H](O[C@H]2CC[C@]3(C)[C@H]4CC=C5[C@@H]6CC(C)(C)CC[C@]6(C(=O)OCc6cn(-c7ccc(C(F)(F)F)cc7)nn6)CC[C@@]5(C)[C@]4(C)CC[C@H]3C2(C)C)O[C@H](CO[C@@H]2OC[C@H](O)[C@H](O)[C@@H]2O)[C@@H](O)[C@@H]1O`: the pIC50 is 4.91 in the test on HCT-116; 4.93 in the test on HepG2; 4.82 in the test on MCF7; 4.85 with A549; 4.89 with MGC-803.
The like results for `CC(=O)N[C@H]1[C@H](O[C@H]2CC[C@]3(C)[C@H]4CC=C5[C@@H]6CC(C)(C)CC[C@]6(C(=O)OCc6cn(-c7ccc(Br)cc7)nn6)CC[C@@]5(C)[C@]4(C)CC[C@H]3C2(C)C)O[C@H](CO[C@@H]2OC[C@H](O)[C@H](O)[C@@H]2O)[C@@H](O)[C@@H]1O` were, in that order, 4.64, 4.90, 4.58, 4.90 and 4.91.
Turning to `CCOc1ccc(-n2cc(COC(=O)[C@]34CCC(C)(C)C[C@H]3C3=CC[C@@H]5[C@@]6(C)CC[C@H](O[C@@H]7O[C@H](CO[C@@H]8OC[C@H](O)[C@H](O)[C@@H]8O)[C@@H](O)[C@H](O)[C@H]7NC(C)=O)C(C)(C)[C@@H]6CC[C@@]5(C)[C@]3(C)CC4)nn2)cc1`, the pIC50 is 4.78 with HCT-116; 4.87 with HepG2; 4.61 with MCF7; 4.71 in the test on A549; 4.67 in the test with MGC-803.
In the case of `CC(=O)N[C@H]1[C@H](O[C@H]2CC[C@]3(C)[C@H]4CC=C5[C@@H]6CC(C)(C)CC[C@]6(C(=O)OCc6cn(-c7ccccc7)nn6)CC[C@@]5(C)[C@]4(C)CC[C@H]3C2(C)C)O[C@H](CO[C@@H]2OC[C@H](O)[C@H](O)[C@@H]2O)[C@@H](O)[C@@H]1O`, the pIC50 is 4.60 in the test with HCT-116; 4.74 with HepG2; 4.66 with MCF7; 5.00 in the test on A549; 4.71 in the test with MGC-803.
The corresponding values for `CC(=O)N[C@H]1[C@H](O[C@H]2CC[C@]3(C)[C@H]4CC=C5[C@@H]6CC(C)(C)CC[C@]6(C(=O)OCc6cn(-c7ccc(Cl)cc7Cl)nn6)CC[C@@]5(C)[C@]4(C)CC[C@H]3C2(C)C)O[C@H](CO[C@@H]2OC[C@H](O)[C@H](O)[C@@H]2O)[C@@H](O)[C@@H]1O` are 4.41, 4.49, 4.54, 4.44 and 4.50.
The like results for `CC(=O)N[C@H]1[C@H](O[C@H]2CC[C@]3(C)[C@H]4CC=C5[C@@H]6CC(C)(C)CC[C@]6(C(=O)OCc6cn(-c7ccc(C)cc7C)nn6)CC[C@@]5(C)[C@]4(C)CC[C@H]3C2(C)C)O[C@H](CO[C@@H]2OC[C@H](O)[C@H](O)[C@@H]2O)[C@@H](O)[C@@H]1O` were, in that order, 4.32, 4.39, 4.35, 4.37 and 4.33.
Consider `COC(=O)c1ccccc1-n1cc(COC(=O)[C@]23CCC(C)(C)C[C@H]2C2=CC[C@@H]4[C@@]5(C)CC[C@H](O[C@@H]6O[C@H](CO[C@@H]7OC[C@H](O)[C@H](O)[C@@H]7O)[C@@H](O)[C@H](O)[C@H]6NC(C)=O)C(C)(C)[C@@H]5CC[C@@]4(C)[C@]2(C)CC3)nn1`, for which the pIC50 in the test with HCT-116 was 4.42; in the test on HepG2, 4.16; with MCF7, 4.06; in the test with A549, 4.18; in the test on MGC-803, 4.12.
The corresponding values for `COc1cccc(-n2cc(COC(=O)[C@]34CCC(C)(C)C[C@H]3C3=CC[C@@H]5[C@@]6(C)CC[C@H](O[C@@H]7O[C@H](CO[C@@H]8OC[C@H](O)[C@H](O)[C@@H]8O)[C@@H](O)[C@H](O)[C@H]7NC(C)=O)C(C)(C)[C@@H]6CC[C@@]5(C)[C@]3(C)CC4)nn2)c1` are 4.91, 5.19, 4.68, 4.88 and 4.94.
As for `CC(=O)N[C@H]1[C@H](O[C@H]2CC[C@]3(C)[C@H]4CC=C5[C@@H]6CC(C)(C)CC[C@]6(C(=O)OCc6cn(-c7cccc(C)c7)nn6)CC[C@@]5(C)[C@]4(C)CC[C@H]3C2(C)C)O[C@H](CO[C@@H]2OC[C@H](O)[C@H](O)[C@@H]2O)[C@@H](O)[C@@H]1O`, the pIC50 in the test on HCT-116 was 5.15; with HepG2, 4.98; in the test with MCF7 it was 4.69; in the test on A549, 4.84; in the test on MGC-803 it was 4.96.
As to `O=c1[nH]cc(F)c(=O)[nH]1` [FLUOROURACIL], the pIC50 in the test on HCT-116 is 4.42; in the test with HepG2 it was 4.32; in the test on A549, 4.15; in the test with MGC-803, 4.51.
